Test results published in paper PMC6759476, “Prior Activation of 5-HT7 Receptors Modulates the Conditioned Place Preference With Methylphenidate” (Frontiers in Behavioral Neuroscience, 2019).

Experiments:
[1] = tested on: rats; assay: Conditioned place preference with MPH and TP-22; format: in vivo, rat (Wistar-Han)
Excerpt: The experimental apparatus used for the CPP test is a Black/White Box (BWB; Adriani et al., [2012]), i.e., a Plexiglas box with smooth walls and floor (70 × 30 × 35 cm) composed of two environments separated by a central gray wall placed at a distance of about 35 cm from end walls. The walls on the longer sides are gray whereas those on the short margins can be distinguished by black or white color. To make the two environments more recognizable, we added additional visual cues: three horizontal white stripes to the black wall and three vertical black stripes to the white wall. On the central gray wall there is a door with an easily removable panel (partition), allowing the experimental subjects to pass (or not) from one compartment chamber to the other, when required.
On both longer sides of the box, there are two aluminum bars equipped with eight photocells connected by cables to a computer. The software in use is Cage controller 1.27 for Dark Light for Rat and Mouse® (PRS, Rome, Italy)^2, that allows to score for each subject:
• Motor activity (beam interruptions per second) in either chamber • Time spent in each chamber (both forepaws and hindpaws in a same chamber) • Transitions (number of times a subject crosses the door between the two chambers)
This test was carried out under dim light and required nine not consecutive days divided into four steps (Figures 2–4):
• Day 1, initial preference test. The spontaneous place preference of experimental subjects was tested in drug-free conditions. They were initially placed in the black chamber (chosen as starting room) and central door was open during the whole test (15 min). The triplet of rats residing in each home cage was tested at the same time. • Days 2–7, drug conditioning. On odd days all 18 subjects were injected with saline solution only and, after injection, immediately placed in the black chamber. […]
The dependent variable was calculated as final preference day minus initial preference day. […]

[2] = tested on: mice; set-up: method as in Galici et al., 2008; Waters et al., 2012; conditions: ref Galici et al., 2008, Waters et al., 2012; cited from earlier work
[3] = tested on: rats; set-up: method as in Galici et al., 2008; Waters et al., 2012; conditions: ref Galici et al., 2008, Waters et al., 2012; cited from earlier work
[4] = biological target: Alfa-1; set-up: method as in Lacivita et al., 2016; conditions: ref Lacivita et al., 2016; cited from earlier work
[5] = biological target: 5-HT6; set-up: method as in Lacivita et al., 2016; conditions: ref Lacivita et al., 2016; cited from earlier work
[6] = biological target: D2; set-up: method as in Lacivita et al., 2016; conditions: ref Lacivita et al., 2016; cited from earlier work
[7] = biological target: 5-HT1A; set-up: method as in Lacivita et al., 2016; conditions: ref Lacivita et al., 2016; cited from earlier work
[8] = set-up: method as in Lacivita et al., 2016; Modica et al., 2018; conditions: in vivo bio-distribution; ref Lacivita et al., 2016; Modica et al., 2018; cited from earlier work

## COC(=O)C(c1ccccc1)C1CCCCN1 (stereo not shown) [MPH, methylphenidate]
[1]; VEH then MPH 5 mg/kg i.v., vs saline control, P < 0.01
  locomotor activity on drug conditioning days (white chamber): significantly enhanced
[1]; drug-free, VEH+MPH conditioned rats
  activity rate, post-conditioning preference test minus initial test: negative during the entire session
[1]; drug-free, VEH+MPH conditioned rats, first 05 min
  time spent in the white side, post-conditioning preference test: slight preference for the white side

## CC1CCN(CC[C@H]2CCCN2S(=O)(=O)c2cccc(O)c2)CC1 [SB-269970]
[2]
  amphetamine-induced hyperactivity: significantly attenuated
[3]
  amphetamine-induced hyperactivity: significantly attenuated

## N#Cc1ccc(CNC(=O)CCCCCN2CCN(c3ccccc3-c3ccccc3)CC2)cc1 [LP-211, N-(4-cyanophenylmethyl)-4–(2-biphenyl)-1-piperazinehexanamide]
[4]
  Ki: 22.6 nM
[5]
  Ki: 1570 nM
[6]
  Ki: 242 nM
[7]
  Ki: 379 nM
[8]
  brain Cmax: 540 ng/mL
